Reference: patent publication US5567692A, “9-[(substituted glycyl) amido)]-6-demethyl-6-deoxytetracyclines” (priority 1995, dated 1996)
Structures can show the parent of a compound that is named as a salt. Where two headings read alike, the source gives them in different places.

Legend:
E. coli UBMS 88-1 Tet B = assay: microbe, parasite or virus in culture; assay type: cell-based; conditions: Escherichia coli, UBMS881TETB, 18 h
E. coli J3272 Tet sens = assay: MIC, agar dilution; assay type: cell-based; conditions: Escherichia coli, J3272TETSENS, 18 h
E. coli PRP1 Tet A = assay: microbe, parasite or virus in culture; assay type: cell-based; conditions: Escherichia coli, PRP1TETA, 18 h
[1] = test system: E. coli MC 4100 TNIOC Tet B; assay: microbe, parasite or virus in culture; assay type: cell-based; conditions: Escherichia coli, 18 h
E. coli J3272 Tet C = assay: microbe, parasite or virus in culture; assay type: cell-based; conditions: Escherichia coli, J3272TETC, 18 h
E. coli UBMS 89-1 Tet M = assay: microbe, parasite or virus in culture; assay type: cell-based; conditions: Escherichia coli, UBMS891TETM, 18 h
[2] = test system: E. coli UBMS 89-2 Tet sens.; assay: MIC, agar dilution; assay type: cell-based; conditions: Escherichia coli, 18 h
E. coli J2175 = assay: MIC, agar dilution; assay type: cell-based; conditions: Escherichia coli, 18 h, read-out: MIC
E. coli BAJ9003 IMP MUT = assay: microbe, parasite or virus in culture; assay type: cell-based; conditions: Escherichia coli, BAJ9003IMPMUT, 18 h
E. coli UBMS 90-4 Tet M = assay: microbe, parasite or virus in culture; assay type: cell-based; conditions: Escherichia coli, UBMS904TETM, 18 h
E. coli UBMS 90-5 = assay: microbe, parasite or virus in culture; assay type: cell-based; conditions: Escherichia coli, UBMS905, 18 h, E. coli UBMS 90-5; read-out: MIC
E. coli #311 (MP) = assay: MIC, agar dilution; assay type: cell-based; conditions: Escherichia coli, 18 h
E. coli ATCC 25922 = assay: MIC, agar dilution; assay type: cell-based; conditions: Escherichia coli, ATCC25922, 18 h
E. coli J3272 Tet D = assay: microbe, parasite or virus in culture; assay type: cell-based; conditions: Escherichia coli, J3272TETD, 18 h
S. marcescens FPOR 8733 = assay: MIC, agar dilution; assay type: cell-based; conditions: Serratia marcescens, FPOR8733, 18 h
[3] = test system: X. maltophilia NEMC 87210; assay: MIC, agar dilution; assay type: cell-based; conditions: Stenotrophomonas maltophilia, NEMC87210, 18 h
[4] = test system: Ps. aeruginosa ATCC 27853; assay: MIC, agar dilution; assay type: cell-based; conditions: Pseudomonas aeruginosa, ATCC27853, 18 h, Ps. aeruginosa ATCC 27853; read-out: MIC
S. aureus NEMC 8769 = assay: MIC, agar dilution; assay type: cell-based; conditions: Staphylococcus aureus, NEMC8769, 18 h
S. aureus UBMS 88-4 = assay: MIC, agar dilution; assay type: cell-based; conditions: Staphylococcus aureus, UBMS884, 18 h; S. aureus UBMS 88-4
[5] = test system: S. aureus UBMS 88-5 Tet M; assay: microbe, parasite or virus in culture; assay type: cell-based; conditions: Staphylococcus aureus, UBMS885TETM, 18 h, S. aureus UBMS 88-5 Tet M
[6] = test system: S. aureus UBMS 88-7 Tet K; assay: microbe, parasite or virus in culture; assay type: cell-based; conditions: Staphylococcus aureus, UBMS887TETK, 18 h
[7] = test system: S. aureus UBMS 90-1 Tet M; assay: microbe, parasite or virus in culture; assay type: cell-based; conditions: Staphylococcus aureus, UBMS901TETM, 18 h
S. aureus UBMS 90-3 = assay: MIC, agar dilution; assay type: cell-based; conditions: Staphylococcus aureus, UBMS903, 18 h
[8] = test system: S. aureus UBMS 90-2 Tet M; assay: microbe, parasite or virus in culture; assay type: cell-based; conditions: Staphylococcus aureus, UBMS902TETM, 18 h
S. aureus IVES 2943 = assay: MIC, agar dilution; assay type: cell-based; conditions: Staphylococcus aureus, IVES2943, 18 h, S. aureus IVES 2943; read-out: MIC
S. aureus ROSE (MP) = assay: MIC, agar dilution; assay type: cell-based; conditions: Staphylococcus aureus, 18 h, read-out: MIC
S. aureus SMITH (MP) = assay: MIC, agar dilution; assay type: cell-based; conditions: Staphylococcus aureus, 18 h
S. aureus IVES 1983 = assay: MIC, agar dilution; assay type: cell-based; conditions: Staphylococcus aureus, IVES1983, 18 h
S. aureus ATCC 29213 = assay: MIC, agar dilution; assay type: cell-based; conditions: Staphylococcus aureus, ATCC29213, 18 h
[9] = test system: S. hemolyticus AVHAH 88-3; assay: MIC, agar dilution; assay type: cell-based; conditions: Streptococcus pyogenes, AVHAH883, 18 h
Enterococcus 12201 = assay: MIC, agar dilution; assay type: cell-based; conditions: Enterococcus, 12201, 18 h
E. faecalis ATCC 29212 = assay: MIC, agar dilution; assay type: cell-based; conditions: Enterococcus faecalis, ATCC29212, 18 h, E. faecalis ATCC 29212; read-out: MIC
[10] = test system: Staphylococcus aureus strain Smith (tetracycline sensitive); assay: Acute lethal infection in mice, S. aureus Smith; assay type: in vivo; conditions: for ED50: Staphylococcus aureus, 168 h, mice, S. aureus Smith (Sens), 7 day survival, read-out: ED50

CCCCNCC(=O)Nc1ccc2c(c1O)C(=O)C1=C(O)[C@]3(O)C(=O)C(C(N)=O)=C(O)[C@@H](N(C)C)C3CC1C2 (stereo partly drawn) [H, [4S-(4alpha,12aalpha)]-9-[[(Butylamino)acetyl]amino]-4-(dimethylamino)-1,4,4a,5,5a,6,11,12a-octahydro-3,10,12,12a-tetrahydroxy-1,11-dioxo-2-naphthacenecarboxamide dihydrochloride]
MIC (E. coli UBMS 88-1 Tet B): 0.25 µg/mL | MIC (E. coli J3272 Tet sens): 0.12 µg/mL | MIC (E. coli PRP1 Tet A): 0.25 µg/mL | MIC [1]: 0.25 µg/mL | MIC (E. coli J3272 Tet C): 0.12 µg/mL | MIC (E. coli UBMS 89-1 Tet M): 0.12 µg/mL | MIC [2]: 0.12 µg/mL | MIC (E. coli J2175): 0.25 µg/mL | MIC (E. coli BAJ9003 IMP MUT): 0.06 µg/mL | MIC (E. coli UBMS 90-4 Tet M): 0.12 µg/mL | MIC (E. coli UBMS 90-5): 0.12 µg/mL | MIC (E. coli #311 (MP)): 0.12 µg/mL | MIC (E. coli ATCC 25922): 0.12 µg/mL | MIC (E. coli J3272 Tet D): 0.06 µg/mL | MIC (S. marcescens FPOR 8733): 2 µg/mL | MIC [3]: 1 µg/mL | MIC [4]: 8 µg/mL | MIC (S. aureus NEMC 8769): 0.03 µg/mL | MIC (S. aureus UBMS 88-4): 0.06 µg/mL | MIC [5]: 0.06 µg/mL | MIC [6]: 1 µg/mL | MIC [7]: 0.12 µg/mL | MIC (S. aureus UBMS 90-3): 0.03 µg/mL | MIC [8]: 0.12 µg/mL | MIC (S. aureus IVES 2943): 1 µg/mL | MIC (S. aureus ROSE (MP)): 4 µg/mL | MIC (S. aureus SMITH (MP)): 0.12 µg/mL | MIC (S. aureus IVES 1983): 2 µg/mL | MIC (S. aureus ATCC 29213): 0.06 µg/mL | MIC [9]: 0.5 µg/mL | MIC (Enterococcus 12201): 0.12 µg/mL | MIC (E. faecalis ATCC 29212): 0.12 µg/mL | ED50 ([10]; iv, Intraveneous): 0.5 to 1 mg/kg | ED50 ([10]; po, Oral): > 16 mg/kg | in vivo activity (in words) ([10]; tested intravenously against the minocycline sensitive organism S. aureus Smith): very good in vivo activity
